# According to ChEMBL document CHEMBL1201862, “PubChem BioAssay data set” (2004):
#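 How tested: cells in 96-well plates exposed to compound for 48 hours at five concentrations. Abbreviation: GI50, concentration required for 50% inhibition of growth.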 Calls of active or inactive are those of the source. Rule as the data show it: active = GI50 up to about 1.1 µM and inactive = higher.
# Experiments:
# Experiment in all cases: DTP human tumour cell line panel, 48 h
# [1] = test system: NCI-H226
# [2] = test system: SNB-19
# [3] = test system: OVCAR-3
# [4] = test system: EKVX
# [5] = test system: Hs-578T
# [6] = test system: T47D
# [7] = test system: A549
# [8] = test system: MDA-N
# [9] = test system: K562
# [10] = test system: Malme-3M
# [11] = test system: IGROV-1
# [12] = test system: SK-OV-3
# [13] = test system: SF-268
# [14] = test system: HL-60
# [15] = test system: OVCAR-8
# [16] = test system: M14
# [17] = test system: A498
# [18] = test system: HCC 2998
Compound,GI50 [1],GI50 [2],GI50 [3],GI50 [4],GI50 [5],GI50 [6],GI50 [7],GI50 [8],GI50 [9],GI50 [10],GI50 [11],GI50 [12],GI50 [13],GI50 [14],GI50 [15],GI50 [16],GI50 [17],GI50 [18]
Cc1cc(O)c2c(c1O)C(=O)C1=C(C2=O)C(=O)C2C(O)C1C1C(O)CC(O)=C3C(=O)c4c(O)cc(C)c(O)c4C(=O)C321 (stereo unspecified),0.885 µM (active),1.2 µM (inactive),1.3 µM (inactive),1.98 µM (inactive),0.553 µM (active),1.24 µM (inactive),0.693 µM (active),1.44 µM (inactive),0.506 µM (active),0.982 µM (active),2.36 µM (inactive),2.24 µM (inactive),2.28 µM (inactive),1.1 µM (active),1.06 µM (active),2.3 µM (inactive),1.27 µM (inactive),1.18 µM (inactive)
N#CC(C#N)=Cn1c(=S)[nH]c2ccccc21,> 100 µM (inactive),> 100 µM (inactive),> 100 µM (inactive),78.3 µM (inactive),> 100 µM (inactive),> 100 µM (inactive),> 100 µM (inactive),> 100 µM (inactive),> 100 µM (inactive),> 100 µM (inactive),> 100 µM (inactive),> 100 µM (inactive),> 100 µM (inactive),> 100 µM (inactive),> 100 µM (inactive),> 100 µM (inactive),> 100 µM (inactive),> 100 µM (inactive)
CCCCCCCCCCCC(=O)N(CCCCCCCCC)CC(O)C(O)C(OC1OC(CO)C(O)C(O)C1O)C(O)CO (stereo unspecified),20.4 µM (inactive),20.6 µM (inactive),20.2 µM (inactive),17.3 µM (inactive),35.3 µM (inactive),20.5 µM (inactive),21 µM (inactive),20.4 µM (inactive),26.9 µM (inactive),19.5 µM (inactive),18.3 µM (inactive),> 10 µM (inactive),19.4 µM (inactive),25.6 µM (inactive),20.6 µM (inactive),19.4 µM (inactive),23.1 µM (inactive),16.9 µM (inactive)
COC(=O)C1=C(O)C(C(=O)OC)[C@@]2(O)[C@@H](C(=O)OC)[C@H](C)[C@@H](C)[C@@H]1[C@@H]2C(=O)OC (stereo partly specified),55.8 µM (inactive),> 100 µM (inactive),27 µM (inactive),52.8 µM (inactive),27.4 µM (inactive),> 100 µM (inactive),–,22 µM (inactive),35.6 µM (inactive),83.2 µM (inactive),–,49.4 µM (inactive),> 100 µM (inactive),45.7 µM (inactive),–,67.5 µM (inactive),> 100 µM (inactive),37.8 µM (inactive)
CCOC(=O)CN1C(=O)c2c(NC(=O)C(=O)O)cccc2S1(=O)=O,> 100 µM (inactive),> 100 µM (inactive),–,> 100 µM (inactive),> 100 µM (inactive),> 100 µM (inactive),> 100 µM (inactive),> 100 µM (inactive),> 100 µM (inactive),> 100 µM (inactive),> 100 µM (inactive),> 100 µM (inactive),> 100 µM (inactive),> 100 µM (inactive),> 100 µM (inactive),> 100 µM (inactive),> 100 µM (inactive),> 100 µM (inactive)
COC1(OC)C2C=CC1C([C@](C)(N)CO)C2 (stereo partly specified),> 100 µM (inactive),> 100 µM (inactive),> 100 µM (inactive),> 100 µM (inactive),> 100 µM (inactive),> 100 µM (inactive),> 100 µM (inactive),> 100 µM (inactive),> 100 µM (inactive),> 100 µM (inactive),> 100 µM (inactive),> 100 µM (inactive),> 100 µM (inactive),> 100 µM (inactive),> 100 µM (inactive),> 100 µM (inactive),> 100 µM (inactive),> 100 µM (inactive)
CNc1ccc2nc(-c3ccc(OC(=O)N(C)C)cc3)cn2c1,20.8 µM (inactive),16.1 µM (inactive),40.7 µM (inactive),19.3 µM (inactive),41.2 µM (inactive),22.2 µM (inactive),16.9 µM (inactive),19.2 µM (inactive),21 µM (inactive),54.3 µM (inactive),17.9 µM (inactive),19 µM (inactive),16.5 µM (inactive),22.5 µM (inactive),15.7 µM (inactive),19.2 µM (inactive),17.5 µM (inactive),30.1 µM (inactive)
c1ccc(C(c2cccc3c2ccc2ccccc23)C(c2ccccc2)c2cccc3c2ccc2ccccc23)cc1 (stereo unspecified),> 100 µM (inactive),> 100 µM (inactive),> 100 µM (inactive),> 100 µM (inactive),> 100 µM (inactive),> 100 µM (inactive),> 100 µM (inactive),> 100 µM (inactive),> 100 µM (inactive),> 100 µM (inactive),> 100 µM (inactive),> 100 µM (inactive),> 100 µM (inactive),65.8 µM (inactive),> 100 µM (inactive),> 100 µM (inactive),> 100 µM (inactive),> 100 µM (inactive)
COc1ccc(C(=O)CCN(C)C)c2ccccc12,> 100 µM (inactive),> 93.5 µM (inactive),16.3 µM (inactive),24.7 µM (inactive),23.6 µM (inactive),11.3 µM (inactive),> 58.2 µM (inactive),21.1 µM (inactive),29.7 µM (inactive),17.8 µM (inactive),19.4 µM (inactive),> 100 µM (inactive),21.9 µM (inactive),15.6 µM (inactive),19.5 µM (inactive),34.3 µM (inactive),27.4 µM (inactive),18 µM (inactive)
O=C(O)C(CO)NC(=O)C1C(C(=O)O)C(c2ccccc2[N+](=O)[O-])C=C(c2ccco2)N1c1ccncc1 (stereo unspecified),14.5 µM (inactive),12 µM (inactive),6.28 µM (inactive),14.9 µM (inactive),13.5 µM (inactive),10.2 µM (inactive),3.26 µM (inactive),2.84 µM (inactive),1.99 µM (inactive),13.4 µM (inactive),2.04 µM (inactive),15.1 µM (inactive),12.6 µM (inactive),2.97 µM (inactive),5.53 µM (inactive),4.32 µM (inactive),11.8 µM (inactive),4.91 µM (inactive)
ClC1=C(Cl)C(Cl)(Cl)SS1,> 10 µM (inactive),> 10 µM (inactive),> 5.56 µM (inactive),> 10 µM (inactive),> 10 µM (inactive),4.79 µM (inactive),> 10 µM (inactive),9.68 µM (inactive),3.17 µM (inactive),3.15 µM (inactive),> 7 µM (inactive),> 10 µM (inactive),> 10 µM (inactive),2.24 µM (inactive),> 6.41 µM (inactive),3.8 µM (inactive),> 10 µM (inactive),> 10 µM (inactive)
CCOC(=O)NC(Nc1ccc(C(=O)O)cc1)(C(F)(F)F)C(F)(F)F,> 100 µM (inactive),> 100 µM (inactive),> 100 µM (inactive),> 100 µM (inactive),> 100 µM (inactive),> 100 µM (inactive),> 100 µM (inactive),> 100 µM (inactive),> 100 µM (inactive),> 100 µM (inactive),> 100 µM (inactive),> 100 µM (inactive),> 100 µM (inactive),> 100 µM (inactive),> 100 µM (inactive),> 100 µM (inactive),> 100 µM (inactive),> 100 µM (inactive)
CN(C)/C=N/S(=O)(=O)c1nn2c(C=O)c(-c3cc4ccccc4oc3=O)nc2s1,15.2 µM (inactive),39.4 µM (inactive),3.08 µM (inactive),10.4 µM (inactive),15.6 µM (inactive),4.09 µM (inactive),13 µM (inactive),4.46 µM (inactive),1.58 µM (inactive),1.95 µM (inactive),9.4 µM (inactive),39.8 µM (inactive),11.1 µM (inactive),1.61 µM (inactive),3.72 µM (inactive),7.83 µM (inactive),22.3 µM (inactive),19.5 µM (inactive)
CC(=O)OCC1OC(OC2CC3C(C)(C)C(OC(C)=O)CC[C@]3(C)C3CCC45CC4(CCC5[C@@H](C)C[C@H](O)C(O)C(C)(C)O)[C@]23C)C(O)C(O)C1O (stereo partly specified),> 10 µM (inactive),> 10 µM (inactive),> 10 µM (inactive),> 10 µM (inactive),> 10 µM (inactive),> 10 µM (inactive),> 10 µM (inactive),> 10 µM (inactive),9.12 µM (inactive),> 10 µM (inactive),> 10 µM (inactive),> 10 µM (inactive),> 10 µM (inactive),9.44 µM (inactive),> 10 µM (inactive),> 10 µM (inactive),> 10 µM (inactive),> 10 µM (inactive)
COc1ccc2oc(S(=O)(=O)N3CC(CCl)c4ccc(N)cc43)cc2c1 (stereo unspecified),0.0412 µM (active),0.0608 µM (active),0.0395 µM (active),0.084 µM (active),0.0161 µM (active),> 100 µM (inactive),0.0662 µM (active),0.0104 µM (active),0.0225 µM (active),0.043 µM (active),0.0445 µM (active),0.108 µM (active),2.01 µM (inactive),0.022 µM (active),0.152 µM (active),0.0393 µM (active),1.48 µM (inactive),0.118 µM (active)
